Measured values from US9567329B2, “High penetration prodrug compositions of 1H-imidazo[4,5-c]quinolin-4-amines and 1H-imidazo[4,5-c]quinolin-4-amine-related compounds and uses thereof” (Techfields Pharma Co., Ltd, priority 2007, dated 2017).

Key:
[1] = test system: herpes simplex virus Type II; assay: Anti-Herpes activity, treated for 5 days, first treatment just after HSV infection; format: in vivo; conditions: guinea pigs
Method: (§1) The evaluation of anti-Herpes activity of these prodrugs was carried out using the method described by Kern, et al. [Antimicrob. Agents Chemother. 14, 817, (1978)].
(§2) In the second experiment, female guinea pigs (n=10) were anesthetized. Herpes simplex virus (Type I or Type II, about 10^5 plaque forming units were used) was applied intravaginally to the guinea pigs using a cotton swab. […] Virus replication was monitored by determining the amount of virus recovered with vaginal swabs taken on day 7 after infection. External lesions were scored daily for ten days using the following scale: 0, no lesion; 1, redness and swelling; 2, a few small vesicles; 3, several large vesicles; 4, large ulcers and necrosis; and 5, paralysis. The percent Lesion Inhibition was calculated as follows: 100−[(Sum of maximum lesion scores of treated group divided by the Sum of the scores of infected control)×100] (Table 6).

[2] = test system: herpes simplex virus Type I; assay: as above; format: in vivo; conditions: guinea pigs
Method: as §1, §2

[3] = test system: Human breast cancer cells (BCAP-37)
From the text: Human breast cancer cells (BCAP-37, 3-4 mm^3 of tumor tissue was used in each mouse) were subcutaneously xenografted into nude mice (BALB).

[4] = test system: Human colon cancer cells (LS174J); assay: Antitumor activity, colon cancer xenograft, topical treatment from day 1; conditions: 50 μl of 3% topically twice per day from day 1; after 28 days
From the text: Human colon cancer cells (LS174J, 4-5 mm^3 of tumor tissue was used in each mouse) were subcutaneously xenografted into nude mice (BALB).

[5] = In vitro penetration rate across human skin in modified Franz cells; format: in vitro ADME; conditions: for In vitro Penetration Rate of HPPs (apparent flux): 3% solution in ethanol/pH 7.4 phosphate buffer (0.2 M) 70/30
Method: Penetration rates of HPPs and their parent drugs through human skin were measured in vitro by modified Franz cells. A Franz cell had two chambers, the top sample chamber and the bottom receiving chamber. The human skin tissue (360-400 μm thick) that separated the top and the receiving chambers was isolated from the anterior or posterior thigh areas.
A compound tested (0.5 mL, 3% in a mixture of ethanol and phosphate buffer (0.2M, pH 7.4) (v/v, 70/30)) was added to the sample chamber of a Franz cell. The receiving chamber contains 2 ml of 2% bovine serum albumin in saline which was stirred at 600 rpm. The amount of the tested compound penetrating the skin was determined by high-performance liquid chromatography (HPLC) method.
The lowest detectable apparent flux values in this method was 1 μg/cm^2/h.

interferon production [6] = assay: Interferon inducing activity in guinea pigs (serum protection of fibroblasts from mengovirus); format: in vivo; conditions: serum 18 hours after treatment
[7] = test system: Human breast cancer cells (BCAP-37); assay: Antitumor activity, breast cancer xenograft, topical treatment from day 1; conditions: 50 μl of 3% topically once per day from day 1; after 28 days
From the text: Human breast cancer cells (BCAP-37, 4-5 mm^3 of tumor tissue was used in each mouse) were subcutaneous xenografted into nude mice (BALB).

[8] = test system: herpes simplex virus Type II; assay: Anti-Herpes activity, treated for 5 days, first treatment 5 days after HSV infection; format: in vivo; conditions: guinea pigs
Method: as §1
(§3) In the third experiment, female guinea pigs (n=10) were anesthetized. The guinea pigs were then infected with herpes simplex virus (type I or Type II, about 10^5 plaque forming units were used) intravaginally using a cotton swab. […] External lesions were scored daily for ten days using the following scale: 0, no lesion; 1, redness and swelling; 2, a few small vesicles; 3, several large vesicles; 4, large ulcers and necrosis; and 5, paralysis. The percent Lesion Inhibition was calculated as follows: 100−[(Sum of maximum lesion scores of treated group divided by the Sum of the scores of infected control)×100] (Table 7).

[9] = test system: herpes simplex virus Type I; assay: as above; format: in vivo; conditions: guinea pigs
Method: as §1, §3

[10] = test system: herpes simplex virus Type II; assay: Anti-Herpes activity, treated for 3 days before HSV infection; format: in vivo; conditions: guinea pigs
Method: (§4) The evaluation of anti-Herpes activity of these prodrugs was carried out using the method described by Kern, et al. [Antimicrob. Agents Chemother. 14, 817, (1978)]. In each experiment, female guinea pigs (n=10) were anesthetized. […] Virus replication was monitored by determining the amount of virus recovered with vaginal swabs taken on day 7 after infection. […] The percent Lesion Inhibition was calculated as follows: 100-[(Sum of maximum lesion scores of treated group divided by the Sum of the scores of infected control)×100] (Table 5).

[11] = test system: herpes simplex virus Type I; assay: as above; format: in vivo; conditions: guinea pigs
Method: as §4

interferon production [12] = assay: Interferon inducing activity in guinea pigs (serum protection of fibroblasts from mengovirus); format: in vivo; conditions: serum 18 hours after treatment; remark: listed apart in the source
Method: Without being bound by any mechanism, the ability to induce interferon production of the pro-drugs of the invention was evaluated in guinea pigs (n=10). Untreated guinea pigs provided controls.
Each test drug was administered to real back skin of a guinea pig at a specific dose of about 0.5-4.5 mg/kg respectively.
Each treated and control guinea pig was bled 18 hours after drug treatment and its serum was assayed for interferon activity. The serum was diluted and incubated with guinea pig fibroblast cells at 37° C. overnight in 96 well microtiter plates. The incubated cells were then challenged with an inoculum of mengovirus that was sufficient to kill untreated cells in two days. Two days after such challenge, the cells were examined both microscopically and after staining with crystal violet to determine whether the cells remained intact.
Table 4 contains the results of the study with activity/ml indicating the highest dilute on of serum that protected cells from virus challenge. Untreated guinea pigs provided controls.

[13] = Irritative effect or discomfort on skin of nude mice after topical application; format: in vivo; conditions: 0.1 ml of 3% in pH 7.4 phosphate buffer, back of nude mice, twice per day, 1 week
Method: Irritative effect or discomfort in the skin of mice of HPPs of 1H-imidazo[4,5-c]quinolin-4-amines or 1H-imidazo[4,5-c]quinolin-4-amine-related compounds was evaluated during a period of 1 week after the topical application of 0.1 ml of 3% of the respective test drug in pH 7.4 phosphate buffer (0.2 M) to the back of nude mice twice per day.

[14] = Conversion of HPPs to parent drugs in human plasma (half life); format: in vitro ADME; conditions: 37° C.
Method: HPPs of 1H-imidazo[4,5-c]quinolin-4-amines or 1H-imidazo[4,5-c]quinolin-4-amine-related compounds converted to the parent 1H-imidazo[4,5-c]quinolin-4-amines or 1H-imidazo[4,5-c]quinolin-4-amine-related compounds quickly in good yield in human plasma.
A HPP of 1H-imidazo[4,5-c]quinolin-4-amines or 1H-imidazo[4,5-c]quinolin-4-amine-related compound (0.05 mg) was dissolved in 0.1 ml of 0.2M pH 7.4 phosphate buffer. 1 ml of human plasma, preheated to 37° C., was added into the mixture. The mixture was kept in a water bath at 37° C., and at every 10 min intervals 0.2 ml of samples were withdrawn and added to 0.4 ml of methanol to precipitate the plasma protein. The samples were centrifuged for 5 min and analyzed by HPLC.

[15] = 0.5 mg/kg once per day for 5 days
[16] = 1.5 mg/kg once per day for 5 days
[17] = 4.5 mg/kg once per day for 5 days
[18] = at day 42, treatment from day 21 (tumors 13±2 mm×12±3 mm), 50 μl of 3% topically once per day
[19] = 0.5 mg/kg once per day for 3 days before HSV infection
[20] = 1.5 mg/kg once per day for 3 days before HSV infection
[21] = 4.5 mg/kg once per day for 3 days before HSV infection

For `CC(C)Cn1cnc2c(N)nc3ccccc3c21.Cl` [1-isobutyl-1H-imidazo[4,5-c]quinolin-4-amine hydrochloride, reference compound], the “% Lesion inhibition of the parent drug, intravaginal, Herpes type II” value [1, 15] was 2%, the “% Lesion inhibition of the parent drug, transdermal, Herpes type II” value [1, 15] was 2% and the “% Lesion inhibition of the parent drug, intravaginal, Herpes type II” value [1, 16] was 21%. For the same compound, the “% Lesion inhibition of the parent drug, transdermal, Herpes type II” value [1, 16] was 6%, the “% Lesion inhibition of the parent drug, intravaginal, Herpes type II” value [1, 17] was 82% and the “% Lesion inhibition of the parent drug, transdermal, Herpes type II” value [1, 17] was 54%. The “% Lesion inhibition of the parent drug, intravaginal, Herpes type I” value [2, 15] was 2%, the “% Lesion inhibition of the parent drug, transdermal, Herpes type I” value [2, 15] was 2% and the “% Lesion inhibition of the parent drug, intravaginal, Herpes type I” value [2, 16] was 17%. The “% Lesion inhibition of the parent drug, transdermal, Herpes type I” value [2, 16] was 7%, the “% Lesion inhibition of the parent drug, intravaginal, Herpes type I” value [2, 17] was 78% and the “% Lesion inhibition of the parent drug, transdermal, Herpes type I” value [2, 17] was 52%. The “tumor size, first dimension” value [3, 18] was 17±2 mm, the “tumor size, second dimension” value [3, 18] was 15±2 mm and the death of mice ([3]; up to day 70, 50 μl of 3% topically once per day from day 21) was “all mice died by day 70”. For the same compound, the “Tumor size, Human colon cancer, first dimension” value [4] was 17 ± 2 mm ×, the “Tumor size, Human colon cancer, second dimension” value [4] was 15 ± 2 mm and the “tumor incidence, human colon cancer” value [4] was 100%. The “In vitro Penetration Rate of Parent compounds (apparent flux)” value ([5]; 3% suspension in ethanol/pH 7.4 phosphate buffer (0.2 M) 70/30) was 0.005 mg/cm^2/h, the “Interferon level of the parent drug, intravaginal” value (shortened to “Interferon level … intravaginal”) (interferon production [6]; 0.5 mg/kg once) was 385 activity/ml and the “Interferon level … intravaginal” value (interferon production [6]; 1.5 mg/kg once) was 2,982 activity/ml. For the same compound, the “Interferon level … intravaginal” value (interferon production [6]; 4.5 mg/kg once) was 28,982 activity/ml, the “Tumor size, Human breast cancer, first dimension” value [7] was 12 ± 2 mm × and the “Tumor size, Human breast cancer, second dimension” value [7] was 11 ± 2 mm. The “tumor incidence, human breast cancer” value [7] was 100%, the “% Lesion inhibition of the parent drug, intravaginal, Herpes type II” value [8, 15] was 2% and the “% Lesion inhibition of the parent drug, transdermal, Herpes type II” value [8, 15] was 2%. For the same compound, the “% Lesion inhibition of the parent drug, intravaginal, Herpes type II” value [8, 16] was 2%, the “% Lesion inhibition of the parent drug, transdermal, Herpes type II” value [8, 16] was 2% and the “% Lesion inhibition of the parent drug, intravaginal, Herpes type II” value [8, 17] was 44%. The “% Lesion inhibition of the parent drug, transdermal, Herpes type II” value [8, 17] was 24%, the “% Lesion inhibition of the parent drug, intravaginal, Herpes type I” value [9, 15] was 2% and the “% Lesion inhibition of the parent drug, transdermal, Herpes type I” value [9, 15] was 2%. The “% Lesion inhibition of the parent drug, intravaginal, Herpes type I” value [9, 16] was 2%, the “% Lesion inhibition of the parent drug, transdermal, Herpes type I” value [9, 16] was 2% and the “% Lesion inhibition of the parent drug, intravaginal, Herpes type I” value [9, 17] was 37%. The “% Lesion inhibition of the parent drug, transdermal, Herpes type I” value [9, 17] was 22%, the “% Lesion inhibition of the parent drug, intravaginal, Herpes type II” value [10, 19] was 5% and the “% Lesion inhibition of the parent drug, transdermal, Herpes type II” value [10, 19] was 2%. The “% Lesion inhibition of the parent drug, intravaginal, Herpes type II” value [10, 20] was 28%, the “% Lesion inhibition of the parent drug, transdermal, Herpes type II” value [10, 20] was 2% and the “% Lesion inhibition of the parent drug, intravaginal, Herpes type II” value [10, 21] was 87%. For the same compound, the “% Lesion inhibition of the parent drug, transdermal, Herpes type II” value [10, 21] was 48%, the “% Lesion inhibition of the parent drug, intravaginal, Herpes type I” value [11, 19] was 4% and the “% Lesion inhibition of the parent drug, transdermal, Herpes type I” value [11, 19] was 2%. The “% Lesion inhibition of the parent drug, intravaginal, Herpes type I” value [11, 20] was 23%, the “% Lesion inhibition of the parent drug, transdermal, Herpes type I” value [11, 20] was 3% and the “% Lesion inhibition of the parent drug, intravaginal, Herpes type I” value [11, 21] was 85%. For the same compound, the “% Lesion inhibition of the parent drug, transdermal, Herpes type I” value [11, 21] was 45%, the “Interferon level of the parent drug, transdermal” value (“Interferon level … transdermal” for short) (interferon production [12]; 0.5 mg/kg once) was 198 activity/ml and the “Interferon level … transdermal” value (interferon production [12]; 1.5 mg/kg once) was 776 activity/ml. For the same compound, the “Interferon level … transdermal” value (interferon production [12]; 4.5 mg/kg once) was 2,785 activity/ml.
In the case of `CCCCn1cnc2c(NC(=O)CNC)nc3ccccc3c21.Cl` [sarcosine 1-butyl-1H-imidazo[4,5-c]quinolin-4-amide hydrochloride], the “signs of irritative effect or discomfort in the skin” value [13] is reported as “None of any signs of irritative effect or discomfort was observed”, the “In vitro Penetration Rate of HPPs (apparent flux)” value [5] is reported as 0.13 mg/cm^2/h and the “Half life of HPPs in plasma” value [14] is reported as 25 ± 2 min.
In the case of “sarcosine 1-benzyl-1H-imidazo[4,5-c]quinolin-4-amide hydrochloride”, the “signs of irritative effect or discomfort in the skin” value [13] is reported as “None of any signs of irritative effect or discomfort was observed”, the “In vitro Penetration Rate of HPPs (apparent flux)” value [5] is reported as 0.16 mg/cm^2/h and the “Half life of HPPs in plasma” value [14] is reported as 29 ± 1 min.
